Experimental data published in PMC11401861, “Assessment of the in vitro anti-diabetic activity with molecular dynamic simulations of limonoids isolated from Adalia lemon peels” (Scientific Reports, 2024).
≈ marks a conversion by molar mass, not a printed value.

Key:
α-amylase [1] = experiment: Native electrophoretic α-amylase isoenzyme pattern (PAGE); format: biochemical; conditions: standard enzyme treated with 100 µg/mL
Protocol: (§1) The relative mobility (Rf), band quantity (Qty) and band percent (B%) of the electrophoretically detected isoenzyme types on the PAGE plate were determined using the Quantity One software program (version 4.6.2). The equation proposed by Nei and Li[39] was used to calculate the percentages of similarity index (SI%) and physiological difference (Diff%).

[2] = ABTS radical scavenging assay
Protocol: (§2) All in vitro biological activities of the limonoids-rich extract and the isolated compounds were assayed in triplicate at three different concentrations (50, 100, and 200 µg/mL).
(§3) The ABTS scavenging capacities of the samples were compared with that of ascorbic acid. The percent inhibition of the ABTS radical was calculated. The IC50 of each tested sample was determined by plotting a curve using a series of sample concentrations against the percent of ABTS inhibition.

[3] = Nitric oxide (NO) radical scavenging activity (Griess Illosvory reagent)
Protocol: as §2
as §3, with “The nitric oxide (NO) radical scavenging activity was estimated by the reaction with Griess Illosvory reagent based on the method proposed by Chakraborthy[34]. The NO” for “The ABTS”, “the NO” for “the ABTS”, “of NO” for “of ABTS”

α-glucosidase [4] = experiment: α-Glucosidase enzyme inhibition assay; format: biochemical
Protocol: as §2
(§4) The IC50 of each tested sample was determined by plotting a curve using a series of sample concentrations against the percent of enzyme inhibition.

α-glucosidase [5] = experiment: SDS-PAGE electrophoretic α-glucosidase pattern; format: biochemical; conditions: 100 µg/mL
Protocol: as §1

[6] = Total antioxidant capacity (TAC), method of Prieto et al.
Protocol: as §2
The method proposed by Prieto et al.[30] was used to determine the total antioxidant capacity (TAC) expressed as mg […] equivalent per gram weight, using ascorbic acid at the same concentrations as a standard.

α-amylase [7] = experiment: α-Amylase enzyme inhibition assay; format: biochemical
Protocol: as §2, §4

[8] = Iron reducing power (IRP), method of Oyaizu
[9] = DPPH radical scavenging activity
Protocol: as §2
The 1,1-Diphenyl-2-picryl-hydrazyl (DPPH) radical scavenging activity was evaluated using the method described by Rahman et al.[32]. Ascorbic acid was used as a positive control at the same concentrations. The inhibition percentage of the DPPH free radical was calculated. The median inhibitory concentration (IC50) of each tested sample was determined by plotting a curve using a series of sample concentrations against the percentage of DPPH inhibition.

| SMILES | Change in electrophoretic α-amylase isoenzyme pattern (α-amylase [1]) | Diff% (physiological difference) of electrophoretic α-amylase pattern from the standard enzyme (α-amylase [1]) | SI% (similarity index) of electrophoretic α-amylase pattern to the standard enzyme (α-amylase [1]) | ABTS Inhibition (%) ([2]; sample concentration 50 µg/mL) | ABTS Inhibition (%) ([2]; sample concentration 100 µg/mL) | ABTS Inhibition (%) ([2]; sample concentration 200 µg/mL) | NO Inhibition (%) ([3]; sample concentration 50 µg/mL) | NO Inhibition (%) ([3]; sample concentration 100 µg/mL) | NO Inhibition (%) ([3]; sample concentration 200 µg/mL) | α-Glucosidase Inhibition (%) (α-glucosidase [4]; sample concentration 50 µg/mL) | α-Glucosidase Inhibition (%) (α-glucosidase [4]; sample concentration 100 µg/mL) | TAC ([6]; sample concentration 50 µg/mL) | TAC ([6]; sample concentration 100 µg/mL) | TAC ([6]; sample concentration 200 µg/mL) | IRP ([8]; sample concentration 50 µg/mL) | IRP ([8]; sample concentration 100 µg/mL) | IRP ([8]; sample concentration 200 µg/mL) | DPPH Inhibition (%) ([9]; sample concentration 50 µg/mL) | DPPH Inhibition (%) ([9]; sample concentration 100 µg/mL) | DPPH Inhibition (%) ([9]; sample concentration 200 µg/mL) | also measured |
| --- | --- | --- | --- | --- | --- | --- | --- | --- | --- | --- | --- | --- | --- | --- | --- | --- | --- | --- | --- | --- | --- |
| CC1(C)O[C@H]2CC(=O)OC[C@]23[C@H]2CC[C@@]4(C)[C@H](c5ccoc5)OC(=O)[C@H]5O[C@]54[C@]2(C)C(=O)C[C@@H]13 [Cpd1, limonin] | no qualitative or quantitative variations | 0.00% | 100.00% | 7.62 ± 0.03% | 13.56 ± 0.04% | 24.14 ± 0.08% | 5.95 ± 0.02% | 10.60 ± 0.04% | 18.87 ± 0.07% | 1.37 ± 0.03% | 2.44 ± 0.04% | 12.77 ± 0.03 mg gallic acid/g | 22.73 ± 0.04 mg gallic acid/g | 40.46 ± 0.08 mg gallic acid/g | 7.62 ± 0.03 µg/mL | 13.56 ± 0.04 µg/mL | 24.14 ± 0.08 µg/mL | 11.10 ± 0.02% | 19.77 ± 0.04% | 35.18 ± 0.07% | α-Glucosidase Inhibition (%) (α-glucosidase [4]; sample concentration 200 µg/mL): 4.34 ± 0.08%; Diff% (decrease in the quantity of the identified α-glucosidase band) (α-glucosidase [5]): 3.83%; Qty (band quantity) of the α-glucosidase band (α-glucosidase [5]): 17.95; α-Amylase Inhibition (%) (α-amylase [7]; sample concentration 50 µg/mL): 4.52 ± 0.03%; α-Amylase Inhibition (%) (α-amylase [7]; sample concentration 100 µg/mL): 8.05 ± 0.04%; α-Amylase Inhibition (%) (α-amylase [7]; sample concentration 200 µg/mL): 14.32 ± 0.08% |
| CC(=O)O[C@H]1CC(=O)OC(C)(C)[C@@H]2CC(=O)[C@]3(C)[C@H](CC[C@@]4(C)[C@H](c5ccoc5)OC(=O)[C@H]5O[C@]543)[C@@]12C [Cpd3, nomilin] | no qualitative or quantitative variations | 0.00% | 100.00% | 7.75 ± 0.03% | 13.79 ± 0.05% | 24.55 ± 0.08% | 6.07 ± 0.02% | 10.80 ± 0.04% | 19.22 ± 0.07% | 1.50 ± 0.03% | 2.67 ± 0.05% | 12.90 ± 0.03 mg gallic acid/g | 22.96 ± 0.05 mg gallic acid/g | 40.87 ± 0.08 mg gallic acid/g | 7.75 ± 0.03 µg/mL | 13.79 ± 0.05 µg/mL | 24.55 ± 0.08 µg/mL | 11.22 ± 0.02% | 19.96 ± 0.04% | 35.53 ± 0.07% | α-Glucosidase Inhibition (%) (α-glucosidase [4]; sample concentration 200 µg/mL): 4.75 ± 0.08%; Diff% (decrease in the quantity of the identified α-glucosidase band) (α-glucosidase [5]): 7.51%; Qty (band quantity) of the α-glucosidase band (α-glucosidase [5]): 17.26; α-Amylase Inhibition (%) (α-amylase [7]; sample concentration 50 µg/mL): 4.65 ± 0.03%; α-Amylase Inhibition (%) (α-amylase [7]; sample concentration 100 µg/mL): 8.27 ± 0.05%; α-Amylase Inhibition (%) (α-amylase [7]; sample concentration 200 µg/mL): 14.73 ± 0.08% |
| O=C1O[C@H]([C@@H](O)CO)C(O)=C1O [Ascorbic Acid, ascorbic acid, reference compound] | – | – | – | 24.94 ± 0.08% | 42.64 ± 0.13% | 75.90 ± 0.23% | 21.02 ± 0.07% | 36.27 ± 0.11% | 64.55 ± 0.20% | – | – | 30.09 ± 0.08 mg gallic acid/g | 53.56 ± 0.14 mg gallic acid/g | 95.34 ± 0.25 mg gallic acid/g | 23.95 ± 0.07 µg/mL | 42.64 ± 0.13 µg/mL | 75.90 ± 0.23 µg/mL | 26.17 ± 0.07% | 45.43 ± 0.11% | 80.87 ± 0.20% | IC50 against ABTS radical ([2]; Fig. 2a): 4.17 ± 0.02 µg/mL (≈ 23.7 µM); IC50 against NO radical ([3]; Fig. 2a): 5.17 ± 0.03 µg/mL (≈ 29.4 µM); IC50 against DPPH radical ([9]; Fig. 2a): 4.74 ± 0.02 µg/mL (≈ 26.9 µM) |
